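96-well plates; 48 h exposure; 5 concentrations. Endpoints by linear interpolation between flanking doses. Not reached: highest tested concentration assigned. At the GI50, growth is halved. TGI: concentration producing complete growth inhibition.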 *1 amine or outer side, *2 acyl side, *3 side chain or, on linkers, in order; H or OH if unused. Where a SMILES comes first, the peptide text is derived from it. Bridges are numbered along the chain shown (N, C = ends). [ ]: non-standard residue; d: D form. The star is where a group is joined. ξ: configuration not given here. ξOrn(4,5-diOH) = O=C(C(CC(O)C(O)N[*:3])N[*:1])[*:2]; ξhTyr(βξ-OH,γξ-OH) = NC(C(=O)O)C(O)C(O)c1ccc(O)cc1; ξPro(3ξ-OH,4ξ-Me) = CC1CNC(C(=O)O)C1O; X22 = CCCCC/C=C/C/C=C\CCCCCCCC(=O)*; Hyp = O=C(O)[CH]1C[CH](O)CN1
Tests used:
Test in all cases: NCI anticancer screen, dose series, 48 h
A498 renal = system: A498 renal
ACHN renal = system: ACHN renal
BT-549 breast = system: BT-549 breast
CAKI-1 renal = system: CAKI-1 renal
CCRF-CEM leukemia = system: CCRF-CEM leukemia
COLO 205 colon = system: COLO 205 colon
DU-145 prostate = system: DU-145 prostate
EKVX NSCLC = system: EKVX NSCLC
HCC-2998 colon = system: HCC-2998 colon
HCT-15 colon = system: HCT-15 colon
HL-60(TB) leukemia = system: HL-60(TB) leukemia
HOP-62 NSCLC = system: HOP-62 NSCLC
HOP-92 NSCLC = system: HOP-92 NSCLC
HS 578T breast = system: HS 578T breast
IGROV1 ovarian = system: IGROV1 ovarian
K-562 leukemia = system: K-562 leukemia
KM12 colon = system: KM12 colon
LOX IMVI melanoma = system: LOX IMVI melanoma
MALME-3M melanoma = system: MALME-3M melanoma
MCF7 breast = system: MCF7 breast
MDA-MB-231 breast = system: MDA-MB-231 breast
MDA-MB-435 = system: MDA-MB-435
MOLT-4 leukemia = system: MOLT-4 leukemia
NCI-H226 lung = system: NCI-H226 lung
NCI-H23 lung = system: NCI-H23 lung
NCI-H460 lung = system: NCI-H460 lung
NCI-H522 lung = system: NCI-H522 lung
NCI/ADR-RES ovarian = system: NCI/ADR-RES ovarian
OVCAR-3 ovarian = system: OVCAR-3 ovarian
OVCAR-4 ovarian = system: OVCAR-4 ovarian
OVCAR-5 ovarian = system: OVCAR-5 ovarian
OVCAR-8 ovarian = system: OVCAR-8 ovarian
PC-3 prostate = system: PC-3 prostate
RPMI-8226 leukemia = system: RPMI-8226 leukemia
RXF 393 renal = system: RXF 393 renal
SF-295 CNS = system: SF-295 CNS
SF-539 CNS = system: SF-539 CNS
SK-MEL-2 melanoma = system: SK-MEL-2 melanoma
SK-MEL-28 melanoma = system: SK-MEL-28 melanoma
SK-MEL-5 melanoma = system: SK-MEL-5 melanoma
SK-OV-3 ovarian = system: SK-OV-3 ovarian
SNB-75 CNS = system: SNB-75 CNS
SR leukemia = system: SR leukemia
SW-620 colon = system: SW-620 colon
TK-10 renal = system: TK-10 renal
U251 CNS = system: U251 CNS
UACC-257 melanoma = system: UACC-257 melanoma
UACC-62 melanoma = system: UACC-62 melanoma
786-0 renal = system: 786-0 renal
A549 NSCLC = system: A549 NSCLC
HCT-116 colon = system: HCT-116 colon
HT29 colon = system: HT29 colon
M14 melanoma = system: M14 melanoma
SF-268 CNS = system: SF-268 CNS
SN12C renal = system: SN12C renal
SNB-19 CNS = system: SNB-19 CNS
UO-31 renal = system: UO-31 renal

For `O=c1c(-c2ccccc2)c(SCCCN2CCCCC2)n(-c2ccccc2)c(=S)n1-c1ccccc1`, the TGI (A498 renal) was 29 µM, the TGI (ACHN renal) was 34.4 µM and the TGI (BT-549 breast) was 35.5 µM. The TGI (CAKI-1 renal) was 38.7 µM, the TGI (CCRF-CEM leukemia) was 50.9 µM and the TGI (COLO 205 colon) was 36.8 µM. It also gave a TGI (DU-145 prostate) of 34.1 µM, a TGI (EKVX NSCLC) of over 100 µM and a TGI (HCC-2998 colon) of 16.8 µM. For the same compound, the TGI (HCT-15 colon) was 38.7 µM, the TGI (HL-60(TB) leukemia) was 38.6 µM and the TGI (HOP-62 NSCLC) was 32.7 µM. It also gave a TGI (HOP-92 NSCLC) of 30.1 µM, a TGI (HS 578T breast) of over 100 µM and a TGI (IGROV1 ovarian) of 35.7 µM. It also gave a TGI (K-562 leukemia) of 34.1 µM, a TGI (KM12 colon) of 41.6 µM and a TGI (LOX IMVI melanoma) of 32.4 µM. It also gave a TGI (MALME-3M melanoma) of 37.7 µM, a TGI (MCF7 breast) of 31.4 µM and a TGI (MDA-MB-231 breast) of 27.9 µM. It also gave a TGI (MDA-MB-435) of 34.5 µM, a TGI (MOLT-4 leukemia) of 47 µM and a TGI (NCI-H226 lung) of 30.4 µM. For the same compound, the TGI (NCI-H23 lung) was 42.9 µM, the TGI (NCI-H460 lung) was 31.5 µM and the TGI (NCI-H522 lung) was 41.1 µM. For the same compound, the TGI (NCI/ADR-RES ovarian) was 43.8 µM, the TGI (OVCAR-3 ovarian) was 34.3 µM and the TGI (OVCAR-4 ovarian) was 58 µM. For the same compound, the TGI (OVCAR-5 ovarian) was over 100 µM, the TGI (OVCAR-8 ovarian) was 37.9 µM and the TGI (PC-3 prostate) was 39.4 µM. For the same compound, the TGI (RPMI-8226 leukemia) was 37.7 µM, the TGI (RXF 393 renal) was 27.7 µM and the TGI (SF-295 CNS) was 32.1 µM. The TGI (SF-539 CNS) was 30.4 µM, the TGI (SK-MEL-2 melanoma) was 30.3 µM and the TGI (SK-MEL-28 melanoma) was 33.2 µM. It also gave a TGI (SK-MEL-5 melanoma) of 30.8 µM, a TGI (SK-OV-3 ovarian) of 45.4 µM and a TGI (SNB-75 CNS) of 29.5 µM. The TGI (SR leukemia) was 37.3 µM, the TGI (SW-620 colon) was 41.9 µM and the TGI (TK-10 renal) was 37.3 µM. It also gave a TGI (U251 CNS) of 29.1 µM, a TGI (UACC-257 melanoma) of 31.9 µM and a TGI (UACC-62 melanoma) of 30.1 µM.

`CCCCC/C=C/C/C=C\CCCCCCCC(=O)NC1CC(O)C(O)NC(=O)C2C(O)C(C)CN2C(=O)C(C(C)O)NC(=O)C(C(O)C(O)c2ccc(O)cc2)NC(=O)C2CC(O)CN2C(=O)C(C(C)O)NC1=O` (stereo not drawn) (X22-[ξOrn(4,5-diOH)]T[Hyp][ξhTyr(βξ-OH,γξ-OH)]T[ξPro(3ξ-OH,4ξ-Me)]; lactam 1-C; configuration not given here) gave a TGI (BT-549 breast) of over 100 µM, a TGI (HOP-92 NSCLC) of over 100 µM and a TGI (NCI-H23 lung) of over 100 µM. The TGI (UACC-257 melanoma) was over 100 µM.

With `CN(C)c1ccc(/C=N/N=C(\C#N)[S][Sn]([Cl])([c]2ccccc2)[c]2ccccc2)cc1` the GI50 (786-0 renal) was 1.48 µM, the TGI (786-0 renal) was 2.83 µM and the GI50 (A498 renal) was 1.96 µM. It also gave a TGI (A498 renal) of 3.71 µM, a GI50 (A549 NSCLC) of 2.84 µM and a TGI (A549 NSCLC) of 9.05 µM. The GI50 (ACHN renal) was 1.72 µM, the TGI (ACHN renal) was 3.2 µM and the GI50 (BT-549 breast) was 1.57 µM. For the same compound, the TGI (BT-549 breast) was 3.04 µM, the GI50 (CAKI-1 renal) was 1.27 µM and the TGI (CAKI-1 renal) was 2.56 µM. For the same compound, the GI50 (CCRF-CEM leukemia) was 0.281 µM, the TGI (CCRF-CEM leukemia) was 1.05 µM and the GI50 (COLO 205 colon) was 1.64 µM. The TGI (COLO 205 colon) was 3.52 µM, the GI50 (EKVX NSCLC) was 1.67 µM and the TGI (EKVX NSCLC) was 4.12 µM. The GI50 (HCC-2998 colon) was 1.28 µM, the TGI (HCC-2998 colon) was 2.61 µM and the GI50 (HCT-116 colon) was 1.32 µM. For the same compound, the TGI (HCT-116 colon) was 2.63 µM, the GI50 (HCT-15 colon) was 1.26 µM and the TGI (HCT-15 colon) was 2.73 µM. The GI50 (HL-60(TB) leukemia) was 0.548 µM, the TGI (HL-60(TB) leukemia) was 5.16 µM and the GI50 (HOP-62 NSCLC) was 2.63 µM. It also gave a TGI (HOP-62 NSCLC) of 6.02 µM, a GI50 (HOP-92 NSCLC) of 1.42 µM and a TGI (HOP-92 NSCLC) of 2.87 µM. The GI50 (HS 578T breast) was 2.7 µM, the TGI (HS 578T breast) was 9.19 µM and the GI50 (HT29 colon) was 2.08 µM. It also gave a TGI (HT29 colon) of 4.18 µM, a GI50 (IGROV1 ovarian) of 1.99 µM and a TGI (IGROV1 ovarian) of 4.63 µM. It also gave a GI50 (K-562 leukemia) of 0.339 µM, a TGI (K-562 leukemia) of 3.55 µM and a GI50 (KM12 colon) of 1.8 µM. It also gave a TGI (KM12 colon) of 3.94 µM, a GI50 (LOX IMVI melanoma) of 1.04 µM and a TGI (LOX IMVI melanoma) of 2.31 µM. The GI50 (M14 melanoma) was 1.72 µM, the TGI (M14 melanoma) was 3.38 µM and the GI50 (MALME-3M melanoma) was 1.74 µM. The TGI (MALME-3M melanoma) was 3.6 µM, the GI50 (MCF7 breast) was 0.283 µM and the TGI (MCF7 breast) was 1.35 µM. It also gave a GI50 (MDA-MB-231 breast) of 1.54 µM, a TGI (MDA-MB-231 breast) of 3.19 µM and a GI50 (MDA-MB-435) of 1.5 µM. For the same compound, the TGI (MDA-MB-435) was 3.01 µM, the GI50 (MOLT-4 leukemia) was 0.876 µM and the TGI (MOLT-4 leukemia) was 5.32 µM. The GI50 (NCI-H226 lung) was 1.82 µM, the TGI (NCI-H226 lung) was 3.46 µM and the GI50 (NCI-H23 lung) was 1.44 µM. The TGI (NCI-H23 lung) was 3.21 µM, the GI50 (NCI-H460 lung) was 2.18 µM and the TGI (NCI-H460 lung) was 4.75 µM. It also gave a GI50 (NCI-H522 lung) of 0.127 µM, a TGI (NCI-H522 lung) of 0.369 µM and a GI50 (NCI/ADR-RES ovarian) of 2.01 µM. The TGI (NCI/ADR-RES ovarian) was 4.76 µM, the GI50 (OVCAR-3 ovarian) was 1.3 µM and the TGI (OVCAR-3 ovarian) was 2.59 µM. It also gave a GI50 (OVCAR-4 ovarian) of 1.32 µM, a TGI (OVCAR-4 ovarian) of 2.63 µM and a GI50 (OVCAR-5 ovarian) of 1.59 µM. The TGI (OVCAR-5 ovarian) was 3.24 µM, the GI50 (OVCAR-8 ovarian) was 2.15 µM and the TGI (OVCAR-8 ovarian) was 4.91 µM. For the same compound, the GI50 (PC-3 prostate) was 2.94 µM, the TGI (PC-3 prostate) was 8.38 µM and the GI50 (RPMI-8226 leukemia) was 1.43 µM. The TGI (RPMI-8226 leukemia) was 5.15 µM, the GI50 (RXF 393 renal) was 1.38 µM and the TGI (RXF 393 renal) was 2.72 µM. It also gave a GI50 (SF-268 CNS) of 1.51 µM, a TGI (SF-268 CNS) of 3.06 µM and a GI50 (SF-295 CNS) of 2.29 µM. For the same compound, the TGI (SF-295 CNS) was 5.48 µM, the GI50 (SF-539 CNS) was 1.7 µM and the TGI (SF-539 CNS) was 3.3 µM. For the same compound, the GI50 (SK-MEL-2 melanoma) was 1.74 µM, the TGI (SK-MEL-2 melanoma) was 3.43 µM and the GI50 (SK-MEL-28 melanoma) was 1.48 µM. The TGI (SK-MEL-28 melanoma) was 2.93 µM, the GI50 (SK-MEL-5 melanoma) was 1.66 µM and the TGI (SK-MEL-5 melanoma) was 3.37 µM. The GI50 (SK-OV-3 ovarian) was 2.78 µM, the GI50 (SN12C renal) was 1.59 µM and the TGI (SN12C renal) was 3.12 µM. The GI50 (SNB-19 CNS) was 1.99 µM, the TGI (SNB-19 CNS) was 3.65 µM and the GI50 (SNB-75 CNS) was 1.07 µM. It also gave a TGI (SNB-75 CNS) of 2.36 µM, a GI50 (SR leukemia) of 1.57 µM and a TGI (SR leukemia) of 8.57 µM. It also gave a GI50 (SW-620 colon) of 0.853 µM, a TGI (SW-620 colon) of 2.45 µM and a GI50 (TK-10 renal) of 1.46 µM. For the same compound, the TGI (TK-10 renal) was 2.8 µM, the GI50 (U251 CNS) was 1.78 µM and the TGI (U251 CNS) was 3.2 µM. For the same compound, the GI50 (UACC-257 melanoma) was 1.52 µM, the TGI (UACC-257 melanoma) was 2.95 µM and the GI50 (UACC-62 melanoma) was 1.41 µM. For the same compound, the TGI (UACC-62 melanoma) was 2.87 µM, the GI50 (UO-31 renal) was 1.58 µM and the TGI (UO-31 renal) was 3.08 µM.

Reference: PubChem BioAssay (NCI)
